The values that follow come from US20230086703A1, “N-(4-(5-chloropyridin-3-yl)phenyl)-2-(2-(cyclopropanesulfonamido)pyrimidin-4-yl) butanamide derivatives and related compounds as human CTPS1 inhibitors for the treatment of proliferative diseases” (Step Pharma S.A.S., priority 2019, published 2023).

The target of this experiment is T1, human CTPS1 (Homo sapiens, UniProt P17812).
T1 construct: FLAG (with GG linker); His8 (with GG linker); purchased Proteros biostructures GmbH
T1 sequence (P17812 1-591): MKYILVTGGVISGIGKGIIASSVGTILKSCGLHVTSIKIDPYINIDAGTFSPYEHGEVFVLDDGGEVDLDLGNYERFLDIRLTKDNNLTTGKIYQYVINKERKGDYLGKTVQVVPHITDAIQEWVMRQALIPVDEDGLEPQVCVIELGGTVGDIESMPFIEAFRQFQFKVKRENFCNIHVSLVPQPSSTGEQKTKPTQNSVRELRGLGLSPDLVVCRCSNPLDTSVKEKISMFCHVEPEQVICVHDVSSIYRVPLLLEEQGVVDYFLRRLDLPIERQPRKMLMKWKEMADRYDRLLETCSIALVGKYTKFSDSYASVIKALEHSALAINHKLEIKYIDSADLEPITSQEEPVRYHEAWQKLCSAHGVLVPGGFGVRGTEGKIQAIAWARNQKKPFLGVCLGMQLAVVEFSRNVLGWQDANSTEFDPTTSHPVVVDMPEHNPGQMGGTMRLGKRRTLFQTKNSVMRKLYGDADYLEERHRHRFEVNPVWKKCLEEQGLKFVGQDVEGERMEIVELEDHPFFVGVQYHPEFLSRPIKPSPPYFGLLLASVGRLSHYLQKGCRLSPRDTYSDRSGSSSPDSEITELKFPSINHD
Nature of the experiment: Human CTPS1 enzyme inhibition, ADP-Glo Max assay. The experiment is classed as biochemical. In outline:
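Read-out is ADP-Glo Max luminescence: residual ATP depleted (60 min), then produced ADP converted back to ATP for luciferase detection (60 min). Beforehand, protein and compound were mixed for 10 min at 25 °C in Tris buffer pH 8.0 with MgCl2, Tween-20 and 2 mM L-cysteine. Results expressed as percentage inhibition per concentration.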
A general note: In ADP-Glo the light output rises with the ADP produced.

Setting [1] is: ADP-Glo Max assay, Table 10, read-out: Human CTPS1 Enzyme Inhibition, IC50 grouped by potency range (CTPS1).

SMILES strings stand for the structures. Where two headings read alike, the source gives them in different places.

`CCC(CC)(C(=O)Nc1ccc(-c2cncc(C#N)c2)cc1)c1csc(NS(=O)(=O)C2CC2)n1` [T93, N-(4-(5-cyanopyridin-3-yl)phenyl)-2-(2-(cyclopropanesulfonamido)thiazol-4-yl)-2-ethylbutanamide]: under setting [1], the IC50 is under 100 nM.
Turning to `CC(C)(C(=O)Nc1ccc(-c2cnccn2)c(C#N)c1)c1csc(NS(=O)(=O)C2CC2)n1` [T34, N-(3-cyano-4-(pyrazin-2-yl)phenyl)-2-(2-(cyclopropanesulfonamido)thiazol-4-yl)-2-methylpropanamide], the IC50 under setting [1] is 100 to 1000 nM.
Still for that read-out and setting: next, `O=C(Cc1csc(NS(=O)(=O)C2CC2)n1)Nc1ccc(-c2ccc(F)cc2)cc1` [T25, 2-(2-(cyclopropanesulfonamido)thiazol-4-yl)-N-(4′-fluoro-[1,1′-biphenyl]-4-yl)acetamide]: 1000 to 10000 nM; `CC(C)(C(=O)Nc1ccc(-c2cncc(C(F)(F)F)c2)cc1F)c1csc(NS(C)(=O)=O)n1` [T426, N-(2-fluoro-4-(5-(trifluoromethyl)pyridin-3-yl)phenyl)-2-methyl-2-(2-(methylsulfonamido)thiazol-4-yl)propanamide]: 100 to 1000 nM.
On the same count and under the same terms, next, `CCOc1cncc(-c2ccc(NC(=O)C(C)(C)c3csc(NS(=O)(=O)C4CC4)n3)cc2)c1` [T290, 2-(2-(cyclopropanesulfonamido)thiazol-4-yl)-N-(4-(5-ethoxypyridin-3-yl)phenyl)-2-methylpropanamide]: under 100 nM.
On to `COc1cncc(-c2ccc(NC(=O)Cc3csc(NS(=O)(=O)C4CCC4)n3)cc2)n1` [T61, 2-(2-(cyclobutanesulfonamido)thiazol-4-yl)-N-(4-(6-methoxypyrazin-2-yl)phenyl)acetamide], for which the IC50 under setting [1] was under 100 nM.
On the same count and under the same terms, the same measure for `CC(C)(C(=O)Nc1ccc(-c2cncc(OCC(F)(F)F)n2)cn1)c1csc(NS(=O)(=O)C2CC2)n1` [T109, 2-(2-(cyclopropanesulfonamido)thiazol-4-yl)-2-methyl-N-(5-(6-(2,2,2-trifluoroethoxy)pyrazin-2-yl)pyridin-2-yl)propanamide]: under 100 nM; for `COc1cncc(-c2ccc(NC(=O)C(C)(C)c3csc(NS(=O)(=O)C4CC4)n3)nc2)c1` [T224, 2-(2-(cyclopropanesulfonamido)thiazol-4-yl)-N-(5′-methoxy-[3,3′-bipyridin]-6-yl)-2-methylpropanamide]: under 100 nM.
Still for that read-out and setting: next, `CC(C)(C(=O)Nc1ccc(-c2cncc(C(F)(F)F)n2)cn1)c1csc(NS(C)(=O)=O)n1` [T425, 2-methyl-2-(2-(methylsulfonamido)thiazol-4-yl)-N-(5-(6-(trifluoromethyl)pyrazin-2-yl)pyridin-2-yl)propanamide]: under 100 nM.
Same read-out and setting: next, `CN(C)c1cncc(-c2ccc(NC(=O)C(C)(C)c3csc(NS(=O)(=O)C4CC4)n3)cc2)c1` [T257, 2-(2-(cyclopropanesulfonamido)thiazol-4-yl)-N-(4-(5-(dimethylamino)pyridin-3-yl)phenyl)-2-methylpropanamide]: 100 to 1000 nM; `Cc1cc(-c2cncc(Cl)n2)ccc1NC(=O)C(C)(C)c1csc(NS(=O)(=O)C2CC2)n1` [T138, N-(4-(6-chloropyrazin-2-yl)-2-methylphenyl)-2-(2-(cyclopropanesulfonamido)thiazol-4-yl)-2-methylpropanamide]: under 100 nM; `CCC(CC)(C(=O)Nc1ccc(-c2cccnc2)cc1)c1csc(NS(=O)(=O)C2CC2)n1` [T92, 2-(2-(cyclopropanesulfonamido)thiazol-4-yl)-2-ethyl-N-(4-(pyridin-3-yl)phenyl)butanamide]: under 100 nM.
In the case of `Cc1cc(-c2cncc(C#N)c2)cc(C)c1NC(=O)C(C)(C)c1csc(NS(=O)(=O)C2CC2)n1` [T320, N-(4-(5-cyanopyridin-3-yl)-2,6-dimethylphenyl)-2-(2-(cyclopropanesulfonamido)thiazol-4-yl)-2-methylpropanamide], the IC50 under setting [1] was in the range of 100 to 1000 nM.
As for `CCC(CC)(C(=O)Nc1ccc(-c2cccnc2)cn1)c1csc(NS(=O)(=O)C2CC2)n1` [T144, N-([3,3′-bipyridin]-6-yl)-2-(2-(cyclopropanesulfonamido)thiazol-4-yl)-2-ethylbutanamide], the IC50 under setting [1] is 100 to 1000 nM.
Still for that read-out and setting: next, `CC(C)(C(=O)Nc1ccc(-c2cncc(Cl)c2)c(C(F)(F)F)c1)c1csc(NS(=O)(=O)C2CC2)n1` [T370, N-(4-(5-chloropyridin-3-yl)-3-(trifluoromethyl)phenyl)-2-(2-(cyclopropanesulfonamido)thiazol-4-yl)-2-methylpropanamide]: 1000 to 10000 nM; `CC(C)(C(=O)Nc1ccc(-c2cncc(Cl)n2)cn1)c1csc(NS(=O)(=O)C2CC2)n1` [T262, N-(5-(6-chloropyrazin-2-yl)pyridin-2-yl)-2-(2-(cyclopropanesulfonamido)thiazol-4-yl)-2-methylpropanamide]: under 100 nM; `Cc1cncc(-c2ccc(NC(=O)C(C)(C)c3csc(NS(=O)(=O)C4CC4)n3)nc2)n1` [T464, 2-(2-(cyclopropanesulfonamido)thiazol-4-yl)-2-methyl-N-(5-(6-methylpyrazin-2-yl)pyridin-2-yl)propanamide]: under 100 nM.
With `CCOC(=O)CN1CCC(C(=O)Nc2ccc(-c3cncc(OCC)n3)cn2)(c2nccc(NS(=O)(=O)C3CC3)n2)CC1` [P295], where the note is “Table 12, ADP-Glo Max assay, read-out: CTPS1 (Human CTPS1 Enzyme Inhibition data grouped by potency range)”, the IC50 was under 100 nM.
With `CC(C)(C(=O)Nc1ccc(-c2cccc(N3CCOCC3)c2)cn1)c1csc(NS(=O)(=O)C2CC2)n1` [T238, 2-(2-(cyclopropanesulfonamido)thiazol-4-yl)-2-methyl-N-(5-(3-morpholinophenyl)pyridin-2-yl)propanamide], the IC50 under setting [1] fell in the range of 1000 to 10000 nM.
The same measure, in the same setting: the same measure for `CCOc1cncc(-c2ccc(NC(=O)C(C)(C)c3csc(NS(=O)(=O)CC(C)C)n3)nc2)n1` [T295, N-(5-(6-ethoxypyrazin-2-yl)pyridin-2-yl)-2-methyl-2-(2-((2-methylpropyl)sulfonamido)thiazol-4-yl)propanamide]: 100 to 1000 nM.
The same measure, in the same setting: the same measure for `O=C(Cc1csc(NS(=O)(=O)C2CC2)n1)Nc1ccc(-c2cccnc2)cc1F` [T216, 2-(2-(cyclopropanesulfonamido)thiazol-4-yl)-N-(2-fluoro-4-(pyridin-3-yl)phenyl)acetamide]: 100 to 1000 nM.
The same measure, in the same setting: next, `CC(C)Oc1cncc(-c2ccc(NC(=O)C(C)(C)c3csc(NS(=O)(=O)C4CC4)n3)nc2)n1` [T143, 2-(2-(cyclopropanesulfonamido)thiazol-4-yl)-N-(5-(6-isopropoxypyrazin-2-yl)pyridin-2-yl)-2-methylpropanamide]: under 100 nM; `CC(C)(C)c1ccc(-c2ccc(NC(=O)Cc3csc(NS(=O)(=O)C4CC4)n3)cc2)cc1` [T243, N-(4′-(tert-butyl)-[1,1′-biphenyl]-4-yl)-2-(2-(cyclopropanesulfonamido)thiazol-4-yl)acetamide]: 1000 to 10000 nM.
For `CCOc1cncc(-c2ccc(NC(=O)C3(c4ccnc(NS(=O)(=O)C5CC5)n4)CCN(C(=O)OC(C)(C)C)CC3)nc2)n1` [P139, tert-butyl 4-(2-(cyclopropanesulfonamido)pyrimidin-4-yl)-4-((5-(6-ethoxypyrazin-2-yl)pyridin-2-yl)carbamoyl)piperidine-1-carboxylate], the IC50 (ADP-Glo Max assay, human full length CTPS1, read-out: CTPS1 (Human CTPS1 Enzyme Inhibition data grouped by potency range, IC50)) is under 100 nM.
Turning to `CC(C)(C(=O)Nc1ccc(-c2ccccc2)cc1)c1csc(NS(=O)(=O)C2CC2)n1` [T97, N-([1,1′-biphenyl]-4-yl)-2-(2-(cyclopropanesulfonamido)thiazol-4-yl)-2-methylpropanamide], the IC50 under setting [1] lay in the range of 100 to 1000 nM.
